Source: patent US5723109A, “Use of salicyclic acid derivatives for depigmenting the skin” (L'Oreal, priority 1995, dated 1998)

System: tyrosinase from human melanocytes
Assay: dopa-oxidase activity of tyrosinase from human melanocytes
Type: cell-based
Protocol: Human melanocytes were prepared and cultured and then introduced into media containing different concentrations of 5-(n-octanoyl)salicylic acid (0.5 μM, 1 μM, 2 μM and 5 μM).
After three days, the melanocytes were "trypsinizated" in a 0.05%/0.02% trypsin/EDTA mixture in a phosphate buffer (50 mM at pH 6.8), washed three times in phosphate buffer containing 1% (w/v) of TRITON X-100 and subjected to ultrasound. After centrifuging, samples were withdrawn and mixed with 5 mM L-DOPA in phosphate buffer. The tyrosinase activity was evaluated by spectrophotometry. The increase in the absorbance at 475 nm is due to the formation of dopachrome from 5 mM DOPA being measured. The absorbance was read on a microplate reader at 25° C. for 60 min.
The activity of the cellular tyrosinase was measured with respect to a calibration range prepared with commercially available tyrosinase.

Question: CCCCCCCC(=O)c1ccc(O)c(C(=O)O)c1 [5-(n-octanoyl)salicylic acid] was tested. Which “decrease of dopa-oxidase activity of the tyrosinase from the melanocytes” value (concentration of 5 μM, three days) did it give?
Answer: more particularly pronounced

Question: And the “dopa-oxidase activity of the tyrosinase from the melanocytes (percentage of activity with respect to the starting activity, FIG. 1)” value (human melanocytes cultured three days with 0.5 μM, 1 μM, 2 μM and 5 μM, 5 mM L-DOPA, absorbance at 475 nm)?
Answer: significantly decreases
